The source of these data is PMC9828099, “Aromatic disulfides as potential inhibitors against interaction between deaminase APOBEC3G and HIV infectivity factor” (Acta Biochimica et Biophysica Sinica, 2022).

One assay relates to HIV-1. The note with it: MT4 and MAGI cells; cited from earlier work.
The target of a further assay is T1, A3G-sNTD (Homo sapiens, UniProt Q9HC16).
T1 sequence (Q9HC16 1-196): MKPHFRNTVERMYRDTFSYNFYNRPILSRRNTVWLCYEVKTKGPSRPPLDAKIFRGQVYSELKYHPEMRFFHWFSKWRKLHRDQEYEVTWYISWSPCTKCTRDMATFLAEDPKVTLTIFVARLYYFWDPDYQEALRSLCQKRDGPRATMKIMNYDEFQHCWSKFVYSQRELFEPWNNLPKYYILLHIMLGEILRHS
Kind of assay: SPR binding of small molecules to A3G-sNTD. The note with it: read-out: KD, binding affinity to A3G-sNTD. On the procedure: (§1) Small molecules in the concentration of 500 μM were injected at 30 μL/min. The contact time is 100 s and dissociation time is 120 s. The chip was regenerated by glycine (pH 1.5) at a flow rate of 30 μL/min (30 s contact time). Then small molecules with high RU were selected to perform the 2 ^nd round screening. […] The data analyses were performed by BIAcore Evaluation.
(SPR reads the build-up and loss of mass on a sensor chip optically.)

The target in the next assay is T2, rVif (Human immunodeficiency virus type 1 group M subtype B, UniProt P12504).
T2 construct: The cDNAs of full-length Vif (residues 1–192) was sub-cloned into the vector pET28a; made in house
T2 sequence (P12504 whole entry, the tested form may be a part): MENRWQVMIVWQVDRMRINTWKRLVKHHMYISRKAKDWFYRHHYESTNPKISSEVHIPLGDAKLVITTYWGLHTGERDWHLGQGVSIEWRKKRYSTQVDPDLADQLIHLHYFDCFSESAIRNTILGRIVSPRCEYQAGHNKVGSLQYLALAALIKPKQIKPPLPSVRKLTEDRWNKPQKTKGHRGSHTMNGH
Format: binding, HIV-1. Conditions: SPR 1st round screening, small molecules at 500 μM. How it is done:
as §1

The subject of assay [1] is interaction between A3G and Vif. On the set-up: method as in PMID 25724652. The note with it: read-out: IC50, block of interaction between A3G and Vif; cited from earlier work.
The subject of a further assay is Vif. The note with it: fluorescent intensity of 293T cells; read-out: IC50, inhibition of Vif activity; cited from earlier work.
The target in assay [2] is full-length APOBEC3G (A3G-FL) (UniProt Q9HC16). The experiment in a line: SPR.

Consider `O=C(O)Cn1c2c(c3c1=C(c1ccc(O)c(O)c1)C(=O)c1cc(O)c(O)cc1-3)-c1cc(O)c(O)cc1C(=O)C=2c1ccc(O)c(O)c1` [Baculiferin L], for which, in the assay with HIV-1, the “IC50, HIV-1 replication” value was 0.5 to 7 µg/mL.

As for `O=C(O)Cn1c2c(c3c1=C(c1ccc(O)c(O)c1)C(=O)c1cc(O)c(OS(=O)(=O)O)cc1-3)-c1cc(O)c(O)cc1C(=O)C=2c1ccc(O)c(O)c1` [Baculiferin M], in the assay with HIV-1, the “IC50, HIV-1 replication” value is 0.5 to 7 µg/mL.

One may read the Kd as the free concentration of one partner at which half of the binding sites on the other are occupied at equilibrium, for simple one-to-one binding. Consider `CCCCn1c(SCc2c(C)noc2C)nc2cc(S(N)(=O)=O)ccc21` [MM-2], for which, on A3G-sNTD, the dissociation constant (Kd) amounted to 19.9 ± 11 µM. In addition, the “relative response value of binding to rVif” value on rVif is listed as 130.4 RU.

The term IC50 denotes the concentration that inhibits the measured activity by half. Regarding `C/C(=C/C(=O)c1cccnc1)Nc1ccc(O)cc1` [N.41], the concentration for half-maximal inhibition (IC50) in assay [1] is 2.18 µM.

Regarding `COc1ccccc1NC(=O)c1ccccc1Sc1ccc([N+](=O)[O-])cc1` [RN-18], in the assay on Vif, the IC50 was 4.5 µM.

Consider “Vif-CBFβ-ELOB-ELOC (VCBC) complex (from UniProt P12504;Q13951;Q15370;Q15369)”, for which the Kd in assay [2] is 0.00071 µM.
